Laboratory results published in US8778974B2, “Trisubstituted 1,2,4 triazoles” (Janssen Pharmaceutica NV, priority 2008, dated 2014).

Experiments:
[1] = target: T1, hα7-wt nAChR-expressing GH4Cl cells (Homo sapiens, UniProt P36544); assay: Patch-clamp current recording (whole-cell), potentiation of choline 1 mM response, PAM type; format: cell-based; design: key to Pam type: Type 0 compounds minimally enhance the effect size of the current elicited by 1 mM choline.; Type 1 compounds enhance the effect size of the current elicited by 1 mM choline but minimally alter the kinetics of the receptor.; Type 2 compounds enhance the effect size of the current elicited by 1 mM choline while reducing the rate and/or the extent of desensitization.; Type 3 compounds enhance the effect size of the current elicited by 1 mM choline. When tested at higher concentrations up to 10 μM they completely inhibit desensitization, in particular a 1 mM choline application of 250 milliseconds.; Type 4 compounds allow for an initial desensitization of the receptor followed by a re-opening of the receptor during agonist application; conditions: for EC50: according to Ex. D.2, "<5" = no top plateau reached at maximal concentration, read-out: Potency (pEC50) (converted); for Pam type: patch-clamp current recording, 1 mM choline
T1 construct: expressed in transfected cells
T1 sequence (P36544 23-502): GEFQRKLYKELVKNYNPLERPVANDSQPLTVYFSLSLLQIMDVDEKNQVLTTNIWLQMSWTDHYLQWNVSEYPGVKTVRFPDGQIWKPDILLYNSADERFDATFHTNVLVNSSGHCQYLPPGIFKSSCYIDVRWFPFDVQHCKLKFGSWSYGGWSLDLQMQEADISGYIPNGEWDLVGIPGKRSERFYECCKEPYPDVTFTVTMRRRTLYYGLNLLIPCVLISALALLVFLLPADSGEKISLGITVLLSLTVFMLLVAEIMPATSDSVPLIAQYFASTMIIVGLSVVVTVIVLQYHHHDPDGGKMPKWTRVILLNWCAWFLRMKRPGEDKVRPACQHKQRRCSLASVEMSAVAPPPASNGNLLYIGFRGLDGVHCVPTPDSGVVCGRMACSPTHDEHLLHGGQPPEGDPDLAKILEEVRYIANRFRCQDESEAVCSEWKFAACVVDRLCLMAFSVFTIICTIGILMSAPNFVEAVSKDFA
Procedure: The compounds of the present invention are classified as type 1-4, based on qualitative kinetic properties, as determined by whole-cell voltage-clamp recordings. This classification is based on the effect of an α7 PAM compound, as described hereinbefore, on the signal elicited by an agonist application. In particular, said agonist is choline at a concentration of 1 mM. In a preferred experimental setting, said α7 PAM compound and choline are simultaneously applied to the cell, as described hereinafter. Desensitization is defined as the closure of the receptor upon activation during the application of the agonist in whole-cell voltage-clamp electrophysiology measurements seen as the reduction of the […] current after initial activation by the agonist.
The definition of the PAM types 1-4 is described hereinafter: • Type 0 compounds minimally enhance the effect size of the current elicited by 1 mM choline. • Type 1 compounds enhance the effect size of the current elicited by 1 mM choline but minimally alter the kinetics of the receptor. In particular, the rate and the extent of desensitization, elicited by the agonist, is not affected. The compound-modulated response to 1 mM choline, therefore, is a close to linear scaling of the 1 mM choline response in absence of the α7 PAM compound. • Type 2 compounds enhance the effect size of the current elicited by 1 mM choline while reducing the rate and/or the extent of desensitization. • Type 3 compounds enhance the effect size of the current elicited by 1 mM choline. […] At low-potency concentrations of the α7 PAM compound, the agonist-induced activation, which is followed by desensitization, can still be separated from the compound-induced re-opening as an initial inward current-maximum. At higher potency concentrations of the α7 PAM compound, the re-opening occurs faster than the closure due to desensitization so that the initial current-maximum disappears.
Patch-clamp Current Recording
Patch-clamp recording from mammalian cells has provided a powerful means of assessing the function of membrane-bound proteins thought to be subunits of ligand-gated ion channels. Activation of such proteins by endogenous or exogenous ligands cause opening of a pore associated with the receptor through which ions flow down their electrochemical gradient. In the case of the hα7-wt nAChR-expressing GH4Cl recombinant cell line the preferential permeability to calcium of this receptor means that calcium flows into the cell upon activation by ACh, choline and other nicotinic ligands giving rise to a calcium current. Since this receptor rapidly desensitizes in the presence of agonist it is important an application system is used which is capable of very rapid switching of solutions (<100 ms) to prevent partial or full desensitisation of receptor responses coincident with the time of agonist application. Consequently, a second convenient technique to assess the enhancement of nicotinic efficacy is patch-clamp recording from hα7-wt nAChR-expressing GH4Cl cells coupled with a rapid-application system.
• a) Assay buffers • The external recording solution consisted of 152 mM NaCl, 5 mM KCl, 1 mM MgCl2, 1 mM Calcium, 10 mM HEPES; pH 7.3. The internal recording solution consisted of 140 mM CsCl, 10 mM HEPES, 10 mM EGTA, 1 mM MgCl2, pH 7.3. • b) Patch-clamp recording was carried out using a Patch-clamp amplifier (Multiclamp 700A, Axon Instruments, Calif., USA). hα7-wt nAChR-expressing GH4Cl cells were patch-clamp in the whole cell configuration (Hamill et al, 1981) with a borosilicate glass electrode of 1.5-3 MΩ tip resistance when filled with the internal recording solution. Recordings were made on cells with membrane resistance >500 MΩ and more preferably 1GΩ and series resistance <15 MΩ with at least 60% series resistance compensation. […]

CC[C@H](O)Cc1nc(Nc2cccc(Cl)c2)nn1-c1ccc(C)nc1 [E196]
EC50 [1]: 912 nM | Pam type [1]: 2 | melting point: 110.4 °C

CCNC(=O)Cc1nc(Nc2cccc(C(F)(F)F)c2)nn1-c1cc(C)nc(C)c1 [E175]
EC50 [1]: 550 nM | Pam type [1]: 4 | melting point: 283.6 °C

CCNC(=O)Cc1nc(Nc2ccc(F)c(F)c2)nn1-c1cc(C)nc(C)c1 [E167, 3-[(3,4-difluorophenyl)amino]-1-(2,6-dimethyl-4-pyridinyl)-N-ethyl-1H-1,2,4-triazole-5-acetamide]
EC50 [1]: 617 nM | Pam type [1]: 2 | melting point: 296.8 °C

Cc1cc(-n2nc(Nc3cccc(Cl)c3F)nc2CC(=O)NC2CC2)cc(C)n1 [E150]
EC50 [1]: 417 nM | Pam type [1]: 2 | melting point: 248.8 °C

CN(C)C(=O)CCc1nc(Nc2cccc(OC(F)(F)F)c2)nn1-c1cccnc1Cl [E76]
EC50 [1]: 407 nM | melting point: 145.7 °C

COc1ccc(-n2nc(Nc3ccc(F)c(F)c3)nc2C[C@H](C)O)cc1 [E21]
EC50 [1]: 1780 nM | Pam type [1]: 1 | melting point: 181.4 °C

Cc1cc(-n2nc(Nc3cc(F)c(F)cc3F)nc2C[C@H](C)O)cc(C)n1 [E194]
EC50 [1]: 5010 nM | melting point: 177.7 °C

CC[C@H](O)Cc1nc(Nc2ccc(F)c(F)c2)nn1-c1cccc(F)c1 [E27]
EC50 [1]: 1910 nM | Pam type [1]: 1 | melting point: 158.1 °C

COCCCc1nc(Nc2ccc(F)c(C(F)(F)F)c2)nn1-c1ccnc(C)c1 [E15]
EC50 [1]: 110 nM | Pam type [1]: 0 | melting point: 141.4 °C

CC[C@H](O)Cc1nc(Nc2ccc(F)c(F)c2)nn1-c1cccnc1 [E145]
EC50 [1]: 2450 nM | melting point: 144.2 °C

Cc1cc(-n2nc(Nc3cccc(OC(F)(F)F)c3)nc2CC(=O)NCC2CC2)cc(C)n1 [E165]
EC50 [1]: 209 nM | Pam type [1]: 1 | melting point: 247.5 °C

Cc1cncc(-n2nc(Nc3ccc4c(c3)OC(F)(F)O4)nc2CCC(=O)N(C)C)c1 [E119]
EC50 [1]: 107 nM | Pam type [1]: 4 | melting point: 141.1 °C

CC[C@@H](O)Cc1nc(Nc2ccc(F)c(F)c2)nn1-c1ccnc(C)c1 [E134]
EC50 [1]: 1050 nM | Pam type [1]: 2 | melting point: 175.8 °C

Cc1cc(-n2nc(Nc3cc(F)c(F)c(F)c3)nc2C[C@H](C)O)cc(C)n1 [E208]
EC50 [1]: 741 nM | Pam type [1]: 2 | melting point: 199.6 °C

CC[C@H](O)Cc1nc(Nc2cccc(Cl)c2)nn1-c1cc(C)nc(C)c1 [E129]
EC50 [1]: 245 nM | Pam type [1]: 2 | melting point: 154.6 °C

CN(C)C(=O)CCc1nc(Nc2ccc(F)c(C(F)(F)F)c2)nn1-c1ccncc1Cl [E74]
EC50 [1]: 72.4 nM | Pam type [1]: 4 | melting point: 181.7 °C

COc1cccc(-n2nc(Nc3ccc(F)c(C(F)(F)F)c3)nc2CCC(=O)N(C)C)c1 [E61]
EC50 [1]: 85.1 nM | melting point: 173.6 °C

Cc1cc(-n2nc(Nc3cccc(OC(F)(F)F)c3)nc2CC(=O)NC2CC2)cc(C)n1 [E182, N-cyclopropyl-1-(2,6-dimethyl-4-pyridinyl)-3-[[3-(trifluoromethoxy)phenyl]amino]-1H-1,2,4-triazole-5-acetamide]
EC50 [1]: 331 nM | Pam type [1]: 2 | melting point: 282.2 °C

Cc1cc(-n2nc(Nc3cccc(OC(F)(F)F)c3)nc2CC(=O)NC2CCC2)cc(C)n1 [E184]
EC50 [1]: 257 nM | Pam type [1]: 2 | melting point: 264.4 °C

CCNC(=O)Cc1nc(Nc2cccc(OC(F)(F)F)c2)nn1-c1cc(C)nc(C)c1 [E181]
EC50 [1]: 513 nM | Pam type [1]: 2 | melting point: 277.5 °C

Cc1cc(-n2nc(Nc3ccc(F)c(F)c3)nc2C[C@@H](C)O)cc(C)n1 [E197]
EC50 [1]: 1780 nM | Pam type [1]: 2 | melting point: 225.1 °C

Cc1cc(-n2nc(Nc3ccc(F)c(C(F)(F)F)c3)nc2CCC(=O)N(C)C)cc(C)n1 [E233]
EC50 [1]: ~29.5 nM | melting point: 184 °C

Cc1cc(-n2nc(Nc3ccc(F)c(C(F)(F)F)c3)nc2CCCCl)ccn1 [E9, 5-(3-chloropropyl)-N-[4-fluoro-3-(trifluoromethyl)phenyl]-1-(2-methyl-4-pyridinyl)-1H-1,2,4-triazol-3-amine]
EC50 [1]: 437 nM | melting point: 182.8 °C

CN(C)C(=O)CCc1nc(Nc2ccc(F)c(F)c2)nn1-c1ccccc1Cl [E57]
EC50 [1]: 1070 nM | Pam type [1]: 3 | melting point: 179.6 °C

Cc1cc(-n2nc(Nc3cccc(C(F)(F)F)c3)nc2CC(=O)NCC2CC2)cc(C)n1 [E177]
EC50 [1]: 219 nM | Pam type [1]: 2 | melting point: 260.9 °C

COc1ccc(-n2nc(Nc3ccc(F)c(C(F)(F)F)c3)nc2C[C@H](C)O)cc1 [E22]
EC50 [1]: 851 nM | Pam type [1]: 0 | melting point: 188.7 °C

Cc1cc(-n2nc(Nc3ccc(F)c(C(F)(F)F)c3)nc2CC(C)O)ccn1 (stereo not drawn) [E10, 3-[[4-Fluoro-3-(trifluoromethyl)phenyl]amino]-alpha-methyl-1-(2-methyl-4-pyridinyl)-, (alphaS)-1H-1,2,4-triazole-5-ethanol]
EC50 [1]: 1050 nM | Pam type [1]: 2 | melting point: 192.7 °C

Cc1cc(-n2nc(Nc3ccc(F)c(F)c3F)nc2C[C@H](C)O)ccn1 [E277]
EC50 [1]: 6310 nM | melting point: 131.4 °C

Cc1cc(-n2nc(Nc3ccc4c(c3)OC(F)(F)O4)nc2CC(=O)NC2CCC2)cc(C)n1 [E179]
EC50 [1]: 97.7 nM | Pam type [1]: 1 | melting point: 291.3 °C

Cc1cc(-n2nc(Nc3ccc(F)c(F)c3F)nc2CC(=O)NC2CCC2)cc(C)n1 [E212]
EC50 [1]: 251 nM | Pam type [1]: 2 | melting point: 249.4 °C

Cc1cc(-n2nc(Nc3cccc(C(F)(F)F)c3)nc2CC(=O)NC2CC2)cc(C)n1 [E171]
EC50 [1]: 501 nM | Pam type [1]: 4 | melting point: 270 °C

Cc1cc(-n2nc(Nc3ccc(F)c(C(F)(F)F)c3)nc2C(C)CO)ccn1 (stereo not drawn) [E31]
EC50 [1]: 2240 nM | Pam type [1]: 2 | melting point: 181.9 °C

Cc1cc(-n2nc(Nc3cccc(Cl)c3F)nc2CC(=O)NC2CCC2)cc(C)n1 [E152]
EC50 [1]: 245 nM | Pam type [1]: 2 | melting point: 234 °C

Cc1ncccc1-n1nc(Nc2ccc3c(c2)OC(F)(F)O3)nc1CCC(=O)N(C)C [E116]
EC50 [1]: 2950 nM | melting point: 151.7 °C

Cc1cc(-n2nc(Nc3ccc(F)c(C(F)(F)F)c3)nc2C[C@@H](C)O)cc(C)n1 [E199]
EC50 [1]: 1070 nM | Pam type [1]: 2 | melting point: 224.4 °C

Cc1cc(-n2nc(Nc3cccc(C(F)(F)F)c3F)nc2CC(=O)NC2CC2)cc(C)n1 [E257, N-Cyclopropyl-1-(2,6-dimethyl-4-pyridinyl)-3-[[2-fluoro-3-(trifluoromethyl)phenyl]amino]-1H-1,2,4-triazole-5-acetamide]
melting point: 244.4 °C

CC[C@H](O)Cc1nc(Nc2cc(F)cc(OC)c2)nn1-c1ccnc(C)c1 [E186, (alphaS)-alpha-ethyl-3-[(3-fluoro-5-methoxyphenyl)amino]-1-(2-methyl-4-pyridinyl)-1H-1,2,4-triazole-5-ethanol]
EC50 [1]: 1020 nM | Pam type [1]: 4

CN(C)C(=O)CCc1nc(Nc2ccc(F)c(F)c2)nn1-c1ccc(OC(F)(F)F)cc1 [E66]
EC50 [1]: 240 nM | Pam type [1]: 4
